Assay results published in PubChem BioAssay (NCI).
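Protocol summary: plate cells (96-well), add compound at 5 concentrations, incubate 48 h, interpolate endpoints linearly. Here, GI50 denotes the concentration required for 50% inhibition of growth. TGI: concentration producing complete growth inhibition.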

Columns and labels:
Assay in all cases: NCI-60 cell line screen, 48 h
[1] = test system: 786-0 renal
[2] = test system: A498 renal
[3] = test system: A549 NSCLC
[4] = test system: ACHN renal
[5] = test system: BT-549 breast
[6] = test system: CAKI-1 renal
[7] = test system: CCRF-CEM leukemia
[8] = test system: COLO 205 colon
[9] = test system: DMS 114 small cell lung
[10] = test system: DMS 273 small cell lung
[11] = test system: DU-145 prostate
[12] = test system: EKVX NSCLC
[13] = test system: HCC-2998 colon
[14] = test system: HCT-116 colon
[15] = test system: HCT-15 colon
[16] = test system: HL-60(TB) leukemia
[17] = test system: HOP-18 NSCLC
[18] = test system: HOP-62 NSCLC
[19] = test system: HOP-92 NSCLC
[20] = test system: HS 578T breast
[21] = test system: HT29 colon
[22] = test system: IGROV1 ovarian
[23] = test system: K-562 leukemia
[24] = test system: KM12 colon
[25] = test system: KM20L2 colon
[26] = test system: LOX IMVI melanoma
[27] = test system: M14 melanoma
[28] = test system: M19-MEL melanoma
[29] = test system: MALME-3M melanoma
[30] = test system: MCF7 breast
[31] = test system: MDA-MB-435
[32] = test system: MDA-N
[33] = test system: MOLT-4 leukemia
[34] = test system: NCI-H226 lung
[35] = test system: NCI-H23 lung
[36] = test system: NCI-H460 lung
[37] = test system: NCI-H522 lung
[38] = test system: NCI/ADR-RES ovarian
[39] = test system: OVCAR-3 ovarian
[40] = test system: OVCAR-4 ovarian
[41] = test system: OVCAR-5 ovarian
[42] = test system: OVCAR-8 ovarian
[43] = test system: PC-3 prostate
[44] = test system: RPMI-8226 leukemia
[45] = test system: RXF 393 renal
[46] = test system: SF-268 CNS
[47] = test system: SF-295 CNS
[48] = test system: SF-539 CNS
[49] = test system: SK-MEL-2 melanoma
[50] = test system: SK-MEL-28 melanoma
[51] = test system: SK-MEL-5 melanoma
[52] = test system: SK-OV-3 ovarian
[53] = test system: SN12C renal
[54] = test system: SNB-19 CNS
[55] = test system: SNB-75 CNS
[56] = test system: SNB-78 CNS
[57] = test system: SR leukemia
[58] = test system: SW-620 colon
[59] = test system: T-47D breast
[60] = test system: TK-10 renal
[61] = test system: U251 CNS
[62] = test system: UACC-257 melanoma
[63] = test system: UACC-62 melanoma
[64] = test system: UO-31 renal
[65] = test system: DLD-1 colon
[66] = test system: LXFL 529 NSCLC

SMILES: N#CC(C#N)=C(N)/C(C#N)=C/c1ccc2[nH]ccc2c1
- TGI [1]: > 100 µM
- TGI [2]: > 100 µM
- TGI [3]: > 100 µM
- TGI [4]: > 100 µM
- TGI [5]: > 100 µM
- TGI [6]: > 100 µM
- TGI [7]: > 100 µM
- TGI [8]: > 100 µM
- TGI [9]: > 100 µM
- TGI [10]: > 100 µM
- TGI [11]: > 100 µM
- TGI [12]: > 100 µM
- TGI [13]: > 100 µM
- TGI [14]: > 100 µM
- TGI [15]: > 100 µM
- TGI [16]: > 100 µM
- TGI [17]: > 100 µM
- TGI [18]: > 100 µM
- TGI [19]: > 100 µM
- TGI [20]: > 100 µM
- TGI [21]: > 100 µM
- TGI [22]: > 100 µM
- TGI [23]: > 100 µM
- TGI [24]: > 100 µM
- TGI [25]: > 100 µM
- TGI [26]: > 100 µM
- TGI [27]: > 100 µM
- TGI [28]: > 100 µM
- TGI [29]: > 100 µM
- TGI [30]: > 100 µM
- TGI [31]: > 100 µM
- TGI [32]: > 100 µM
- TGI [33]: > 100 µM
- TGI [34]: > 100 µM
- TGI [35]: > 100 µM
- TGI [36]: > 100 µM
- TGI [37]: > 100 µM
- TGI [38]: > 100 µM
- TGI [39]: > 100 µM
- TGI [40]: > 100 µM
- TGI [41]: > 100 µM
- TGI [42]: > 100 µM
- TGI [43]: > 100 µM
- TGI [44]: > 100 µM
- TGI [45]: > 100 µM
- TGI [46]: > 100 µM
- TGI [47]: > 100 µM
- TGI [48]: > 100 µM
- TGI [49]: > 100 µM
- TGI [50]: > 100 µM
- TGI [51]: > 100 µM
- TGI [52]: > 100 µM
- TGI [53]: > 100 µM
- TGI [54]: > 100 µM
- TGI [55]: > 100 µM
- TGI [56]: > 100 µM
- TGI [57]: > 100 µM
- TGI [58]: > 100 µM
- TGI [59]: > 100 µM
- TGI [60]: > 100 µM
- TGI [61]: > 100 µM
- TGI [62]: > 100 µM
- TGI [63]: > 100 µM
- TGI [64]: > 100 µM

SMILES: COC/N=C(/N)NC#N
- TGI [1]: > 100 µM
- TGI [2]: > 100 µM
- TGI [3]: > 100 µM
- TGI [4]: > 100 µM
- TGI [6]: > 100 µM
- TGI [7]: > 100 µM
- TGI [8]: 39.2 µM
- TGI [65]: > 100 µM
- TGI [9]: 37.6 µM
- TGI [10]: 91.5 µM
- TGI [12]: > 100 µM
- TGI [13]: > 100 µM
- TGI [14]: > 100 µM
- TGI [15]: 31 µM
- TGI [16]: > 100 µM
- TGI [17]: > 100 µM
- TGI [18]: > 100 µM
- TGI [19]: > 100 µM
- TGI [21]: > 100 µM
- TGI [22]: > 100 µM
- TGI [23]: > 100 µM
- TGI [24]: > 100 µM
- TGI [25]: > 100 µM
- TGI [66]: > 100 µM
- TGI [27]: > 100 µM
- TGI [28]: > 100 µM
- TGI [29]: > 100 µM
- TGI [33]: > 100 µM
- TGI [34]: > 100 µM
- TGI [35]: > 100 µM
- TGI [36]: > 100 µM
- TGI [37]: > 100 µM
- TGI [39]: > 100 µM
- TGI [40]: > 100 µM
- TGI [41]: > 100 µM
- TGI [42]: > 100 µM
- TGI [44]: > 100 µM
- TGI [45]: > 100 µM
- TGI [46]: > 100 µM
- TGI [47]: > 100 µM
- TGI [48]: > 100 µM
- TGI [49]: > 100 µM
- TGI [50]: > 100 µM
- TGI [51]: > 100 µM
- TGI [52]: > 100 µM
- TGI [53]: > 100 µM
- TGI [54]: > 100 µM
- TGI [55]: > 100 µM
- TGI [56]: > 100 µM
- TGI [57]: 53.4 µM
- TGI [58]: 33.6 µM
- TGI [60]: > 100 µM
- TGI [61]: > 100 µM
- TGI [62]: > 100 µM
- TGI [63]: > 100 µM
- TGI [64]: > 100 µM

SMILES: CC(=O)[CH-]C(=O)Nc1ccccc1.CC(=O)[CH-]C(=O)Nc1ccccc1.CC[O-].CC[O-].[Ti+4]
- GI50 [1]: > 100 µM
- TGI [1]: > 100 µM
- GI50 [2]: > 100 µM
- TGI [2]: > 100 µM
- GI50 [3]: > 100 µM
- TGI [3]: > 100 µM
- GI50 [4]: > 100 µM
- TGI [4]: > 100 µM
- GI50 [6]: > 100 µM
- TGI [6]: > 100 µM
- GI50 [7]: > 100 µM
- TGI [7]: > 100 µM
- GI50 [8]: > 100 µM
- TGI [8]: > 100 µM
- GI50 [65]: > 100 µM
- TGI [65]: > 100 µM
- GI50 [9]: > 100 µM
- TGI [9]: > 100 µM
- GI50 [12]: > 100 µM
- TGI [12]: > 100 µM
- GI50 [13]: > 100 µM
- TGI [13]: > 100 µM
- GI50 [14]: > 100 µM
- TGI [14]: > 100 µM
- GI50 [15]: > 100 µM
- TGI [15]: > 100 µM
- GI50 [17]: > 100 µM
- TGI [17]: > 100 µM
- GI50 [18]: > 100 µM
- TGI [18]: > 100 µM
- GI50 [19]: > 100 µM
- TGI [19]: > 100 µM
- GI50 [21]: > 100 µM
- TGI [21]: > 100 µM
- GI50 [22]: > 100 µM
- TGI [22]: > 100 µM
- GI50 [23]: > 100 µM
- TGI [23]: > 100 µM
- GI50 [24]: > 100 µM
- TGI [24]: > 100 µM
- GI50 [25]: > 100 µM
- TGI [25]: > 100 µM
- GI50 [26]: > 100 µM
- TGI [26]: > 100 µM
- GI50 [27]: > 100 µM
- TGI [27]: > 100 µM
- GI50 [28]: > 100 µM
- TGI [28]: > 100 µM
- GI50 [29]: > 100 µM
- TGI [29]: > 100 µM
- GI50 [33]: > 100 µM
- TGI [33]: > 100 µM
- GI50 [34]: > 100 µM
- TGI [34]: > 100 µM
- GI50 [35]: > 100 µM
- TGI [35]: > 100 µM
- GI50 [36]: > 100 µM
- TGI [36]: > 100 µM
- GI50 [37]: > 100 µM
- TGI [37]: > 100 µM
- GI50 [39]: > 100 µM
- TGI [39]: > 100 µM
- GI50 [40]: > 100 µM
- TGI [40]: > 100 µM
- GI50 [41]: > 100 µM
- TGI [41]: > 100 µM
- GI50 [42]: > 100 µM
- TGI [42]: > 100 µM
- GI50 [45]: > 100 µM
- TGI [45]: > 100 µM
- GI50 [46]: > 100 µM
- TGI [46]: > 100 µM
- GI50 [47]: > 100 µM
- TGI [47]: > 100 µM
- GI50 [48]: > 100 µM
- TGI [48]: > 100 µM
- GI50 [49]: > 100 µM
- TGI [49]: > 100 µM
- GI50 [50]: > 100 µM
- TGI [50]: > 100 µM
- GI50 [51]: > 100 µM
- TGI [51]: > 100 µM
- GI50 [52]: > 100 µM
- TGI [52]: > 100 µM
- GI50 [53]: > 100 µM
- TGI [53]: > 100 µM
- GI50 [54]: > 100 µM
- TGI [54]: > 100 µM
- GI50 [55]: 61.2 µM
- TGI [55]: > 100 µM
- GI50 [56]: > 100 µM
- TGI [56]: > 100 µM
- GI50 [57]: > 100 µM
- TGI [57]: > 100 µM
- GI50 [58]: > 100 µM
- TGI [58]: > 100 µM
- GI50 [60]: > 100 µM
- TGI [60]: > 100 µM
- GI50 [61]: > 100 µM
- TGI [61]: > 100 µM
- GI50 [62]: > 100 µM
- TGI [62]: > 100 µM
- GI50 [63]: > 100 µM
- TGI [63]: > 100 µM
- GI50 [64]: > 100 µM
- TGI [64]: > 100 µM
